We go through 23 compounds from patent publication US20260216170A1, “TETRAHYDROISOQUINOLINE HETEROBIFUNCTIONAL BCL-XL DEGRADERS” (Treeline Biosciences, Inc., priority 2023, published 2026).

For this assay, the target named is T1, Human BCL-XL protein (N-terminal HiBiT tagged BCL-XL expressed in HT1080 cells) (Homo sapiens, UniProt Q07817).
T1 construct: expressed in transfected cells; host or cells: HT-1080 (ATCC CCL-121), stably transduced with lentivirus pLV-UBC-N-HiBiT-BCL-XL-PGK-puro and selected with puromycin
Nature of the assay: HiBiT Based Degradation Assay. The note with it: 24 hours incubation; for DC50: BCL-XL degradation, HT1080 cells expressing N-HiBiT-BCL-XL, normalized with DMSO control, geometric mean for multiple data points, read-out: EC50 (24 h); for Ymin (24 h): bottom of BCL-XL degradation curve (remaining HiBiT-BCL-XL signal vs DMSO control), HT1080 cells. It counts as cell-based. From the text:
HiBiT Based Degradation Assay
Human BCL-XL protein coding open reading frame fused with N-terminal HiBiT coding sequence (N-HiBiT-BCL-XL) was synthesized from Integrated DNA Technologies (IDT). Next, N-HiBiT-BCL-XL sequence was cloned into pLV-UBC-PGK-Puro, a lentivirus plasmid purchased from Vectorbuilder, to generate pLV-UBC-N-HiBiT-BCL-XL-PGK-puro. Lentiviral particles were generated from Lenti-X™ 293T cells (Clontech) by co-transfection of pLV-UBC-N-HiBiT-BCL-XL-PGK-puro plasmids and lentiviral packaging plasmid mix (Cellecta). HT-1080 [HT1080](ATCC CCL-121™) cells were infected with the lentivirus, and HT1080 cells stably integrated with the lentiviral vector were established by incubation with 1 μg/mL puromycin (Thermofisher). HT1080 cells expressing N-terminal HiBiT tagged BCL-XL were dispensed into 384-well plates pre-spotted with compounds at varying concentrations. Three thousand cells were seeded into each well in 40 μL of RPMI 1640 media. After 24 hours of incubation at 37° C. with 5% CO2, 30 μL of the NANO-GLO® HiBiT Lytic Detection System working solution (Promega) was added to each well and incubated at room temperature for 30 min. After incubation, luminescence was read on a PHERAstar FSX Plate Reader (BMG). BCL-XL degradation at each indicated concentration was normalized with DMSO control. The BCL-XL degradation curves were plotted using a four-parameter logistic model. For compounds displaying hook effects, curve fitting was performed using bottom point of hook curves (i.e., the point of Ymin) as bottom plateau to calculate EC50. For compounds with multiple data points, the geometric mean is presented.
For orientation: With HiBiT, luminescence reflects the tagged protein that the partner subunit can reach.

T1 sequence (Q07817 whole entry): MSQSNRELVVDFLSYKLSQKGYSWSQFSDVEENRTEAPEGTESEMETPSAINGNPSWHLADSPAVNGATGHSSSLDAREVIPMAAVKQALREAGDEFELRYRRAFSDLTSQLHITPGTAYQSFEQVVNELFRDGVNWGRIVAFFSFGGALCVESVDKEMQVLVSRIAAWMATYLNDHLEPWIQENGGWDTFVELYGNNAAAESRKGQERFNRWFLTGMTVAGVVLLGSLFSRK

For the compound `Cc1cc(OC[C@H]2C[C@@H]2C2CCN(CC(=O)Nc3ccc4c(C5CCC(=O)NC5=O)nn(C)c4c3)CC2)ccc1-c1ccc(N2CCc3cccc(C(=O)Nc4nc5ccccc5s4)c3C2)nc1C(=O)O` (relative stereo) [Compound 1003a, 6-(8-(benzo[d]thiazol-2-ylcarbamoyl)-3,4-dihydroisoquinolin-2(1H)-yl)-3-(4-(((1S,2R)-2-(1-(2-((3-(2,6-dioxopiperidin-3-yl)-1-methyl-1H-indazol-6-yl)amino)-2-oxoethyl)piperidin-4-yl)cyclopropyl)methoxy)-2-methylphenyl)picolinic acid], the DC50 was less than 10 nM and the “Ymin (24 h)” value is reported as “A (Ymin < 30%)”.
Regarding `C[C@@H](COc1ccc(-c2ccc(N3CCc4cccc(C(=O)Nc5nc6ccccc6s5)c4C3)nc2C(=O)O)c(C(F)(F)F)c1)CC1CCN(CC(=O)Nc2ccc3c(C4CCC(=O)NC4=O)nn(C)c3c2)CC1` (single isomer, unassigned) [Compound 130a], the DC50 lay in the range of 10 to 100 nM and the “Ymin (24 h)” value was “B (30% ≤ Ymin < 50%)”.
Regarding `C[C@H](COc1ccc(-c2ccc(N3CCc4cccc(C(=O)Nc5nc6ccccc6s5)c4C3)nc2C(=O)O)c(C(F)(F)F)c1)CC1CCN(CC(=O)Nc2ccc3c(C4CCC(=O)NC4=O)nn(C)c3c2)CC1` (single isomer, unassigned) [Compound 130b], the DC50 lay in the range of 10 to 100 nM and the “Ymin (24 h)” value was “B (30% ≤ Ymin < 50%)”.
Regarding `Cc1cc(O[C@H](C)CCC2CCN(CC(=O)Nc3ccc4c(C5CCC(=O)NC5=O)nn(C)c4c3)CC2)ccc1-c1ccc(N2CCc3ccnc(C(=O)Nc4nc5ccccc5s4)c3C2)nc1C(=O)O` (single isomer, unassigned) [Compound 133a], the DC50 is 10 to 100 nM and the “Ymin (24 h)” value is given as “B (30% ≤ Ymin < 50%)”.
Regarding `Cc1cc(O[C@@H](C)CCC2CCN(CC(=O)Nc3ccc4c(C5CCC(=O)NC5=O)nn(C)c4c3)CC2)ccc1-c1ccc(N2CCc3ccnc(C(=O)Nc4nc5ccccc5s4)c3C2)nc1C(=O)O` (single isomer, unassigned) [Compound 133b], the DC50 fell in the range of 10 to 100 nM and the “Ymin (24 h)” value is listed as “A (Ymin < 30%)”.
Consider `C[C@@H](CCC1CCN(CC(=O)Nc2ccc3c(C4CCC(=O)NC4=O)nn(C)c3c2)CC1)Oc1ccc(-c2ccc(N3CCc4cccc(C(=O)Nc5nc6ccccc6s5)c4C3)nc2C(=O)O)c(C(F)(F)F)c1` (single isomer, unassigned) [Compound 138a], for which the DC50 was less than 10 nM and the “Ymin (24 h)” value is “B (30% ≤ Ymin < 50%)”.
As for `C[C@H](CCC1CCN(CC(=O)Nc2ccc3c(C4CCC(=O)NC4=O)nn(C)c3c2)CC1)Oc1ccc(-c2ccc(N3CCc4cccc(C(=O)Nc5nc6ccccc6s5)c4C3)nc2C(=O)O)c(C(F)(F)F)c1` (single isomer, unassigned) [Compound 138b], the DC50 was in the range of 10 to 100 nM and the “Ymin (24 h)” value is recorded as “B (30% ≤ Ymin < 50%)”.
Regarding `Cc1cc(OC[C@H](C)CC2CCN(CC(=O)Nc3ccc4c(C5CCC(=O)NC5=O)nn(C)c4c3)CC2)ccc1-c1ccc(N2CCc3ccnc(C(=O)Nc4nc5ccccc5s4)c3C2)nc1C(=O)O` (single isomer, unassigned) [Compound 140a], the DC50 is less than 10 nM and the “Ymin (24 h)” value is recorded as “A (Ymin < 30%)”.
As to `Cc1cc(OC[C@@H](C)CC2CCN(CC(=O)Nc3ccc4c(C5CCC(=O)NC5=O)nn(C)c4c3)CC2)ccc1-c1ccc(N2CCc3ccnc(C(=O)Nc4nc5ccccc5s4)c3C2)nc1C(=O)O` (single isomer, unassigned) [Compound 140b], the DC50 was in the range of 10 to 100 nM and the “Ymin (24 h)” value is “A (Ymin < 30%)”.
On to `COc1c(NC(=O)CN2CCC(CC[C@H](C)Oc3ccc(-c4ccc(N5CCc6cccc(C(=O)Nc7nc8ccccc8s7)c6C5)nc4C(=O)O)c(C)c3)CC2)ccc2c(C3CCC(=O)NC3=O)nn(C)c12` (single isomer, unassigned) [Compound 223a], for which the DC50 fell in the range of 10 to 100 nM and the “Ymin (24 h)” value is reported as “B (30% ≤ Ymin < 50%)”.
`COc1c(NC(=O)CN2CCC(CC[C@@H](C)Oc3ccc(-c4ccc(N5CCc6cccc(C(=O)Nc7nc8ccccc8s7)c6C5)nc4C(=O)O)c(C)c3)CC2)ccc2c(C3CCC(=O)NC3=O)nn(C)c12` (single isomer, unassigned) [Compound 223b]: the DC50 was in the range of 10 to 100 nM and the “Ymin (24 h)” value is listed as “A (Ymin < 30%)”.
As to `Cc1cc(O[C@@H](C)CCC2CCN(CC(=O)Nc3ccc4c(C5CCC(=O)NC5=O)nn(C)c4c3F)CC2)ccc1-c1ccc(N2CCc3cccc(C(=O)Nc4nc5ccccc5s4)c3C2)nc1C(=O)O` (single isomer, unassigned) [Compound 224a], the DC50 lay in the range of 10 to 100 nM and the “Ymin (24 h)” value is “B (30% ≤ Ymin < 50%)”.
Take `Cc1cc(O[C@H](C)CCC2CCN(CC(=O)Nc3ccc4c(C5CCC(=O)NC5=O)nn(C)c4c3F)CC2)ccc1-c1ccc(N2CCc3cccc(C(=O)Nc4nc5ccccc5s4)c3C2)nc1C(=O)O` (single isomer, unassigned) [Compound 224b]: the DC50 is 10 to 100 nM and the “Ymin (24 h)” value is reported as “A (Ymin < 30%)”.
As to `Cc1cc(O[C@@H](C)CCC2CCN(CC(=O)Nc3ccc4c(C5CCC(=O)NC5=O)nn(C)c4n3)CC2)ccc1-c1ccc(N2CCc3cccc(C(=O)Nc4nc5ccccc5s4)c3C2)nc1C(=O)O` (single isomer, unassigned) [Compound 225a], the DC50 lay within 10 to 100 nM and the “Ymin (24 h)” value was “B (30% ≤ Ymin < 50%)”.
For `Cc1cc(O[C@H](C)CCC2CCN(CC(=O)Nc3ccc4c(C5CCC(=O)NC5=O)nn(C)c4n3)CC2)ccc1-c1ccc(N2CCc3cccc(C(=O)Nc4nc5ccccc5s4)c3C2)nc1C(=O)O` (single isomer, unassigned) [Compound 225b], the DC50 fell in the range of 10 to 100 nM and the “Ymin (24 h)” value is given as “B (30% ≤ Ymin < 50%)”.
In the case of `Cc1c(OC[C@@H]2C[C@H]2C2CCN(CC(=O)Nc3ccc4c(C5CCC(=O)NC5=O)nn(C)c4c3)CC2)cccc1-c1ccc(N2CCc3cccc(C(=O)Nc4nc5ccccc5s4)c3C2)nc1C(=O)O` (single isomer, unassigned) [Compound 1001a], the DC50 is 10 to 100 nM and the “Ymin (24 h)” value is “B (30% ≤ Ymin < 50%)”.
For `Cc1c(OC[C@H]2C[C@@H]2C2CCN(CC(=O)Nc3ccc4c(C5CCC(=O)NC5=O)nn(C)c4c3)CC2)cccc1-c1ccc(N2CCc3cccc(C(=O)Nc4nc5ccccc5s4)c3C2)nc1C(=O)O` (single isomer, unassigned) [Compound 1001b], the DC50 lay in the range of 10 to 100 nM and the “Ymin (24 h)” value is “B (30% ≤ Ymin < 50%)”.
Consider `Cc1c(OC[C@H]2C[C@H]2C2CCN(CC(=O)Nc3ccc4c(C5CCC(=O)NC5=O)nn(C)c4c3)CC2)cccc1-c1ccc(N2CCc3cccc(C(=O)Nc4nc5ccccc5s4)c3C2)nc1C(=O)O` (single isomer, unassigned) [Compound 1001c], for which the DC50 is 10 to 100 nM and the “Ymin (24 h)” value is listed as “B (30% ≤ Ymin < 50%)”.
For `Cc1c(OC[C@@H]2C[C@@H]2C2CCN(CC(=O)Nc3ccc4c(C5CCC(=O)NC5=O)nn(C)c4c3)CC2)cccc1-c1ccc(N2CCc3cccc(C(=O)Nc4nc5ccccc5s4)c3C2)nc1C(=O)O` (single isomer, unassigned) [Compound 1001d] the same measures were 10 to 100 nM and “B (30% ≤ Ymin < 50%)”.
Take `Cc1cc(OC[C@H]2C[C@@H]2CC2CCN(CC(=O)Nc3ccc4c(C5CCC(=O)NC5=O)nn(C)c4c3)CC2)ccc1-c1ccc(N2CCc3cccc(C(=O)Nc4nc5ccccc5s4)c3C2)nc1C(=O)O` (single isomer, unassigned) [Compound 1002a]: the DC50 was less than 10 nM and the “Ymin (24 h)” value is recorded as “B (30% ≤ Ymin < 50%)”.
`Cc1cc(OC[C@H]2C[C@H]2CC2CCN(CC(=O)Nc3ccc4c(C5CCC(=O)NC5=O)nn(C)c4c3)CC2)ccc1-c1ccc(N2CCc3cccc(C(=O)Nc4nc5ccccc5s4)c3C2)nc1C(=O)O` (single isomer, unassigned) [Compound 1002b]: the DC50 is less than 10 nM and the “Ymin (24 h)” value is reported as “B (30% ≤ Ymin < 50%)”.
Turning to `Cc1cc(OC[C@@H]2C[C@H]2CC2CCN(CC(=O)Nc3ccc4c(C5CCC(=O)NC5=O)nn(C)c4c3)CC2)ccc1-c1ccc(N2CCc3cccc(C(=O)Nc4nc5ccccc5s4)c3C2)nc1C(=O)O` (single isomer, unassigned) [Compound 1002c], the DC50 was less than 10 nM and the “Ymin (24 h)” value is on record as “A (Ymin < 30%)”.
For `Cc1cc(OC[C@@H]2C[C@@H]2CC2CCN(CC(=O)Nc3ccc4c(C5CCC(=O)NC5=O)nn(C)c4c3)CC2)ccc1-c1ccc(N2CCc3cccc(C(=O)Nc4nc5ccccc5s4)c3C2)nc1C(=O)O` (single isomer, unassigned) [Compound 1002d], the DC50 was less than 10 nM and the “Ymin (24 h)” value is reported as “A (Ymin < 30%)”.
